Data from US20020165130A1, “Method of sensitizing microbial cells to antimicrobial compounds” (priority 1998, published 2002).
Entries after “also recorded” stand apart in the source; their conditions may differ.

Columns and labels:
[1] = test system: Lactobacillus fermentum ATCC 14931; test: Flow cytometry, uptake of ethidium bromide by L. fermentum; format: cell-based; conditions: 15 μM ethidium bromide
Procedure: (§1) Erwinia sp. #351 was from Presque Isle Cultures, Presque Isle, Pa. Lactobacillus fermentum ATCC 14931, zygosaccharomyces bailii ATCC 60483 and E. coli ATCC 25922 (National Committee on Clinical Laboratory Standards antibiotic test strain) were from the American Type Culture Collection, Manassas, Va. Staphylococcus aureus ATCC 6538 and Enterococcus faecalis Bact. 4025 were obtained from the UW-Madison Department of Bacteriology culture collection. All bacteria except for L. fermentum were grown statically in screwcap tubes containing 10 ml Trypticase Soy Broth (BBL, Cockeysville, Md.) for 20-22 hours at 30° C. L. fermentum was grown statically in screwcap tubes containing 10 ml MRS broth (Difco) for 20-22 hours at 30° C. Cultures of Z. bailii were grown in 125 ml culture flasks containing 50 ml YM broth (Difco) on a rotary shaker set at 200 rpm for 20-22 hours at 25° C. For experiments involving flow cytometry, overnight cultures of Erwinia sp., L. fermentum and Z. bailli were set to a concentration of ca. 10^7 cfu/ml in 67 mM phosphate buffer, pH 7.0 (filtered, 0.2 μm). For the examination of sesquiterpenoids, cell suspensions containing either 0.5% ethanol and 15 μM ethidium bromide or 0.5 mM apritone, bisabolol, nerolidol or farnesol dissolved in ethanol (0.5% ethanol, final concentration) and 15 μM ethidium bromide were incubated for 40 minutes at room temperature. After incubation, cell suspensions were diluted 1:10 in 67 mM phosphate buffer, pH 7.0 (filtered, 0.2 μm) and examined using a FACScan flow cytometer (Becton Dickinson and Company, Cockeysville, Md.). Data were collected in logarithmic mode on forward scatter, side scatter and fluorescence characteristics of the cells.

[2] = test system: Staphylococcus aureus ATCC 6538; test: Antibiotic disc assay (zones of inhibition), S. aureus; format: cell-based
Procedure: (§2) Erwinia sp. #351 was from Presque Isle Cultures, Presque Isle, Pa. Lactobacillus fermentum ATCC 14931, zygosaccharomyces bailii ATCC 60483 and E. coli ATCC 25922 (National Committee on Clinical Laboratory Standards antibiotic test strain) were from the American Type Culture Collection, Manassas, Va. Staphylococcus aureus ATCC 6538 and Enterococcus faecalis Bact. 4025 were obtained from the UW-Madison Department of Bacteriology culture collection. All bacteria except for L. fermentum were grown statically in screwcap tubes containing 10 ml Trypticase Soy Broth (BBL, Cockeysville, Md.) for 20-22 hours at 30° C. L. fermentum was grown statically in screwcap tubes containing 10 ml MRS broth (Difco) for 20-22 hours at 30° C. Cultures of Z. bailii were grown in 125 ml culture flasks containing 50 ml YM broth (Difco) on a rotary shaker set at 200 rpm for 20-22 hours at 25° C.
(§3) The activity of terpenoid compounds toward facilitating susceptibility to antibiotics was assessed using an antibiotic disc assay. For this assay, cells from an overnight growth were suspended to a known concentration in 0.5 ml 67 mM phosphate buffer, pH 7.0 and mixed with 4.5 ml 0.7% Iso-Sensitest agar (Oxoid, Basingstoke, Hampshire, England) overlay tempered to 50° C. Terpenoid compounds dissolved in absolute ethanol were added to the cell/agar overlay mixture yielding final concentrations of 0.5, 1.0 or 2.0 mM, depending on the experiment. The final concentration of ethanol in cell overlays was 0.5% and the final concentration of target cells was ca. 10^6 cfu/ml. After thorough vortexing, terpenoid-containing cell overlays were poured over hardened Iso-Sensitest agar (2% agar) plates and allowed to set. […] After incubation, zones of inhibition were measured with a ruler from the bottom of the plates.

E. coli ATCC 25922 = test: Plating assay, nerolidol enhancing polymyxin B activity against E. coli; format: cell-based, Escherichia coli; conditions: 1 mM nerolidol plus 10 ppm polymyxin B, up to 30 minutes at 37° C.
Procedure: as §2, with “25° C. […]” for “25° C.”
Cell suspensions (1.7×10^7 cfu/ml in 67 mM phosphate buffer, pH 7.0) were treated as shown and incubated for up to 30 minutes at 37° C. Cell viability was determined at appropriate intervals by pour plating with Trypticase Soy agar tempered to 50° C.

[3] = test system: Enterococcus faecalis Bact. 4025; format: cell-based; conditions: E. faecalis
Procedure: as §2, §3

[4] = test system: zygosaccharomyces bailii ATCC 60483; test: Flow cytometry, uptake of ethidium bromide by Z. bailii; format: cell-based; conditions: 0.5 mM sesquiterpenoid, 15 μM ethidium bromide, 40 minutes
Procedure: as §1

In the case of `C=CC(C)(O)CCC=C(C)CCC=C(C)C` (stereo not shown) [nerolidol], the “time to substantial uptake of ethidium bromide” value ([1]; 0.5 mM nerolidol) is reported as ≤ 5 min, the “uptake of ethidium bromide (ethidium-conferred fluorescence)” value ([1]; 0.5 mM sesquiterpenoid, 40 minutes) is reported as “facilitated the uptake of ethidium bromide” and the “ability to sensitize S. aureus to ciprofloxacin” value ([2]; 0.5 mM terpenoid, ciprofloxacin 5 μg disc) is reported as “most effective”. The “sensitization to six different antibiotics” value ([2]; disc diffusion, 0.5-2 mM sesquiterpenoid) was “readily sensitized”, the “zone size, ciprofloxacin 5 μg disc” value ([2]; terpenoid at 0.5 mM in agar overlay, ciprofloxacin 5 μg disc) was 27.5 mm and the “susceptibility of E. coli to polymyxin B (cell viability, cfu/ml)” value (E. coli ATCC 25922) was “dramatic increase in the susceptibility; also recorded: synergistic effect”. The “zones smaller than control plates by” value ([3]; clindamycin 2 μg disc, 1 mM sesquiterpenoid) was 1 mm, the “degree of sensitization to antibiotics” value ([3]; disc diffusion, 1 mM sesquiterpenoid) was “only a modest degree of sensitization” and the “enhancement of inhibition zone size” value ([3]; nerolidol 1 mM combined with gentamicin 10 μg disc) was “almost two-fold enhancement”. The “uptake of ethidium bromide (fluorescence, chromosomal staining)” value [4] was “became more fluorescent”.
